Experimental data: the supplement of paper PMC10307832

Assays:
Assay in all cases: relative viability (nuclei count vs DMSO), 5 days (fraction); higher = more cells survive
[1] = compound: CC[C@H](C)N1C=C(C2=C(C=C(C=C21)C3=CN=C(C=C3)N4CCNCC4)C(=O)NCC5=C(C=C(NC5=O)C)C)C [GSK126] + O=C(CCCCCCC(=O)Nc1ccccc1)NO [Vorinostat] (partner 1 µM)
Summary of the method: (§1)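 Lung cancer cell lines, seeded in 1536-well plates, were treated the following day by pin tool with a single drug or with five library-drug doses (not always all listed) in √10 steps on top of a fixed anchor-drug dose. Cells were fixed and nuclei stained in one step after 5 days, and nuclei were counted. Relative viability is the nuclei count for treated wells divided by that for vehicle wells, reported as medians of duplicate plates.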

[2] = compound: C1CC(C1)(C(=O)O)C(=O)O.[NH2-].[NH2-].[Pt+2] [Carboplatin] + CCNC(=O)c1noc(-c2cc(C(C)C)c(O)cc2O)c1-c1ccc(CN2CCOCC2)cc1 [Luminespib] (partner 0.01 µM)
Summary of the method: as §1

[3] = compound: NS(=O)(=O)OC[C@@H]1C[C@@H](n2ccc3c(N[C@H]4CCc5ccccc54)ncnc32)C[C@@H]1O [MLN4924] + O=C(CCCCCCC(=O)Nc1ccccc1)NO [Vorinostat] (partner 1 µM)
Summary of the method: as §1

[4] = compound: NS(=O)(=O)OC[C@@H]1C[C@@H](n2ccc3c(N[C@H]4CCc5ccccc54)ncnc32)C[C@@H]1O [MLN4924] + CS(=O)(=O)N1CCN(Cc2cc3nc(-c4cccc5[nH]ncc45)nc(N4CCOCC4)c3s2)CC1 [Pictilisib] (partner 1 µM)
Summary of the method: as §1

| Cell Line | relative viability ([1]; first compound 0.08 µM) | relative viability ([1]; first compound 0.253 µM) | relative viability ([1]; first compound 0.8 µM) | relative viability ([1]; first compound 2.53 µM) | relative viability ([1]; first compound 8 µM) | relative viability ([2]; first compound 0.08 µM) | relative viability ([2]; first compound 0.253 µM) | relative viability ([2]; first compound 0.8 µM) | relative viability ([2]; first compound 2.53 µM) | relative viability ([2]; first compound 8 µM) | relative viability ([3]; first compound 0.04 µM) | relative viability ([3]; first compound 0.1265 µM) | relative viability ([3]; first compound 0.4 µM) | relative viability ([3]; first compound 1.265 µM) | relative viability ([3]; first compound 4 µM) | relative viability ([4]; first compound 0.04 µM) | relative viability ([4]; first compound 0.1265 µM) | relative viability ([4]; first compound 0.4 µM) | relative viability ([4]; first compound 1.265 µM) | relative viability ([4]; first compound 4 µM) |
| --- | --- | --- | --- | --- | --- | --- | --- | --- | --- | --- | --- | --- | --- | --- | --- | --- | --- | --- | --- | --- |
| NCI-H23 | 0.936 | 0.627 | 0.639 | 0.632 | 0.527 | 0.194 | 0.237 | 0.208 | 0.173 | 0.233 | 0.521 | 0.441 | 0.197 | 0.134 | 0.142 | 0.249 | 0.288 | 0.183 | 0.0988 | 0.141 |
| NCI-H322M | 0.838 | 0.884 | 0.866 | 0.939 | 0.939 | 1.09 | 0.749 | 0.752 | 0.633 | 0.61 | 1.27 | 1.47 | 0.863 | 0.38 | 0.475 | 0.556 | 0.855 | 0.669 | 0.291 | 0.333 |
| NCI-H358 | 0.767 | 0.708 | 0.644 | 0.68 | 0.672 | 0.359 | 0.77 | 0.259 | 0.409 | 0.222 | 0.621 | 0.479 | 0.264 | 0.0895 | 0.0817 | 0.481 | 0.496 | 0.227 | 0.175 | 0.188 |
| NCI-H441 | 1.04 | 0.59 | 0.714 | 0.673 | 0.791 | 0.387 | 0.28 | 0.266 | 0.295 | 0.234 | 0.859 | 0.733 | 0.576 | 0.158 | 0.152 | 0.471 | 0.285 | 0.251 | 0.136 | 0.139 |
| NCI-H460 | 0.89 | 0.718 | 0.75 | 0.699 | 0.656 | 0.0398 | 0.0303 | 0.0396 | 0.0341 | 0.0233 | 0.679 | 0.827 | 0.797 | 0.115 | 0.0271 | 0.506 | 0.729 | 0.618 | 0.191 | 0.0906 |
| NCI-H520 | 0.761 | 0.739 | 0.656 | 0.745 | 0.87 | 0.256 | 0.209 | 0.183 | 0.21 | 0.211 | 0.499 | 0.499 | 0.321 | 0.177 | 0.223 | 0.322 | 0.402 | 0.359 | 0.276 | 0.238 |
| NCI-H596 | 0.613 | 0.55 | 0.746 | 0.577 | 0.502 | 1.02 | 1 | 0.4 | 0.342 | 0.746 | 0.471 | 0.597 | 0.601 | 0.382 | 0.418 | 0.419 | 0.448 | 0.273 | 0.379 | 0.349 |
| NCI-H647 | 0.724 | 0.61 | 0.614 | 0.592 | 0.687 | 0.169 | 0.239 | 0.154 | 0.185 | 0.13 | 0.414 | 0.391 | 0.0893 | 0.0464 | 0.0578 | 0.318 | 0.469 | 0.274 | 0.0538 | 0.0717 |
